# US10947289B2, “Glyco-modified atrial natriuretic peptide” (priority 2013, dated 2021)
# Where two headings read alike, the source gives them in different places.
# Target: T1, human GC-A (Homo sapiens, UniProt P16066)
# T1 construct: expressed in transfected cells; host or cells: CHO cells
# T1 sequence (P16066 33-1061): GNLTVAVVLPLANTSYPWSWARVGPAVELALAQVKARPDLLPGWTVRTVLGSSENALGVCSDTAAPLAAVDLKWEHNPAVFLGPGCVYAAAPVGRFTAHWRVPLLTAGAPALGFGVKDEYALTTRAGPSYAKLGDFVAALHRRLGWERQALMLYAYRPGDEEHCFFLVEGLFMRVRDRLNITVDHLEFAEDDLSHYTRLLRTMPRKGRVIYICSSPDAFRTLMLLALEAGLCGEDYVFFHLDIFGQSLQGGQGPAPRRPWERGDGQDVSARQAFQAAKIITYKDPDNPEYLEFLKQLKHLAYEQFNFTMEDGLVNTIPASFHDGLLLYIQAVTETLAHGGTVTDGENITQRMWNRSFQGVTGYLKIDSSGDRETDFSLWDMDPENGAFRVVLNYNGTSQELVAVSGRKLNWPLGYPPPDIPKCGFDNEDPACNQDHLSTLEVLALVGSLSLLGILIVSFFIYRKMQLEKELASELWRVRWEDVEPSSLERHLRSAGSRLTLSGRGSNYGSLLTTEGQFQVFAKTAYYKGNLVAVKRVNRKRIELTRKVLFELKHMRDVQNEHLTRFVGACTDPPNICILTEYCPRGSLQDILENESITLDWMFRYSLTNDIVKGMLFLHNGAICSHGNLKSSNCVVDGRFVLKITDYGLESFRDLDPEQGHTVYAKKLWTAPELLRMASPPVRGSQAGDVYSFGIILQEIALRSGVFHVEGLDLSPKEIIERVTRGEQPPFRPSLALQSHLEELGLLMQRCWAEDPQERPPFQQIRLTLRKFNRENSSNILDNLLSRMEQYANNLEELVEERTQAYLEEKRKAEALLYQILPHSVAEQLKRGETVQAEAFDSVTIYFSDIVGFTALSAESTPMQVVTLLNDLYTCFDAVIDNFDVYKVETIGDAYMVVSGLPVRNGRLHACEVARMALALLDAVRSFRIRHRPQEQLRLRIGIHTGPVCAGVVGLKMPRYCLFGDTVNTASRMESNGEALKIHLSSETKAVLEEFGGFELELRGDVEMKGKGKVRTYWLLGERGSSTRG
# Test: cGMP elevating activity in CHO/human GC-A cells (Test Example 1)
# Type: cell-based
# Experimental: The cGMP elevating activity of each modified peptide prepared in Example 2 was measured by the following method:
# CHO/human GC-A cells, which are CHO cells constitutively expressing human GC-A, were suspended at 2×10^5 cells/ml in α-MEM, 10% FBS, and 1% penicillin-streptomycin, inoculated at 20 μl/well (4×10^3 cells/well) onto a 384-well plate (Corning, 3826), and cultured overnight in a CO2 incubator. On the next day, the medium was removed from this plate, and then, 1.6 mM IBMX/KRB buffer was added thereto at 10 μl/well. The mixture was stirred on a plate shaker and then incubated at room temperature for 10 minutes. […] The mixture was stirred on a plate shaker and then incubated for 15 minutes in a CO2 incubator. Thereafter, a lysis buffer (50 mM phosphate buffer, pH 7.0, and 1% Triton X-100) was added thereto at 5 μl/well. The cells were lysed by stirring for 10 minutes on a plate shaker. Subsequently, the cGMP levels in the cell lysates were measured by use of a cGMP kit (manufactured by Cisbio Bioassays). Specifically, to a 384-well plate (Greiner, 784076), 5 μl/well of a diluent attached to the kit, 5 μl/well of the cell lysate, 5 μl/well of cGMP-d2, and 5 μl/well of anti cGMP-Cryptate were added. The mixture was stirred on a plate shaker and then incubated overnight at 4° C. in the dark, followed by the measurement of homogeneous time-resolved fluorescence using RubyStar (manufactured by BMG LABTECH JAPAN Ltd.). The activity value (T/C) of the test substance at each concentration was calculated when the activity value of a well supplemented with only a solvent was defined as 0 and the activity value of a well supplemented with 1 nM ANP was defined as 1.
Molecule,EC50,"EC50 (CHO/human GC-A cells, concentration at T/C=0.5, 15 minutes incubation, read-out: EC50)","Emax (maximum T/C in range 0.01-100 nM, solvent only = 0, 1 nM ANP = 1)"
"CC[C@H](C)[C@@H]1NC(=O)[C@H](CCCNC(=N)N)NC(=O)[C@H](CC(=O)O)NC(=O)[C@H](CCSC)NC(=O)[C@H](CCCNC(=N)N)NC(=O)CNC(=O)CNC(=O)[C@H](Cc2ccccc2)NC(=O)[C@@H](NC(=O)[C@H](CO)NC(=O)[C@H](CO)NC(=O)[C@H](CCCNC(=N)N)NC(=O)[C@H](CCCNC(=N)N)NC(=O)[C@H](CC(C)C)NC(=O)[C@H](CO)NC(=O)CCOCCOCCOCCOCCNC(=O)CCSC2CC(=O)N(CCC(=O)N[C@@H](CCC(=O)NCCO[C@@H]3O[C@H](CO)[C@@H](O[C@@H]4O[C@H](CO)[C@@H](O[C@@H]5O[C@H](CO[C@H]6O[C@H](CO)[C@@H](O)[C@H](O)[C@@H]6O[C@@H]6O[C@H](CO)[C@@H](O[C@@H]7O[C@H](CO[C@]8(C(=O)O)C[C@H](O)[C@@H](NC(C)=O)[C@H]([C@H](O)[C@H](O)CO)O8)[C@H](O)[C@H](O)[C@H]7O)[C@H](O)[C@H]6NC(C)=O)[C@@H](O)[C@H](O[C@H]6O[C@H](CO)[C@@H](O)[C@H](O)[C@@H]6O[C@@H]6O[C@H](CO)[C@@H](O[C@@H]7O[C@H](CO[C@]8(C(=O)O)C[C@H](O)[C@@H](NC(C)=O)[C@H]([C@H](O)[C@H](O)CO)O8)[C@H](O)[C@H](O)[C@H]7O)[C@H](O)[C@H]6NC(C)=O)[C@@H]5O)[C@H](O)[C@H]4NC(C)=O)[C@H](O)[C@H]3NC(C)=O)C(=O)NCCO[C@@H]3O[C@H](CO)[C@@H](O[C@@H]4O[C@H](CO)[C@@H](O[C@@H]5O[C@H](CO[C@H]6O[C@H](CO)[C@@H](O)[C@H](O)[C@@H]6O[C@@H]6O[C@H](CO)[C@@H](O[C@@H]7O[C@H](CO[C@]8(C(=O)O)C[C@H](O)[C@@H](NC(C)=O)[C@H]([C@H](O)[C@H](O)CO)O8)[C@H](O)[C@H](O)[C@H]7O)[C@H](O)[C@H]6NC(C)=O)[C@@H](O)[C@H](O[C@H]6O[C@H](CO)[C@@H](O)[C@H](O)[C@@H]6O[C@@H]6O[C@H](CO)[C@@H](O[C@@H]7O[C@H](CO[C@]8(C(=O)O)C[C@H](O)[C@@H](NC(C)=O)[C@H]([C@H](O)[C@H](O)CO)O8)[C@H](O)[C@H](O)[C@H]7O)[C@H](O)[C@H]6NC(C)=O)[C@@H]5O)[C@H](O)[C@H]4NC(C)=O)[C@H](O)[C@H]3NC(C)=O)C2=O)CSSC[C@@H](C(=O)N[C@@H](CC(N)=O)C(=O)N[C@@H](CO)C(=O)N[C@@H](Cc2ccccc2)C(=O)N[C@@H](CCCNC(=N)N)C(=O)N[C@@H](Cc2ccc(O)cc2)C(=O)O)NC(=O)CNC(=O)[C@H](CC(C)C)NC(=O)CNC(=O)[C@H](CO)NC(=O)[C@H](CCC(N)=O)NC(=O)[C@H](C)NC(=O)CNC1=O (stereo partly shown) [Compound 2-31, SG-(SG-)Gln*-Mal-PEG(3)-hANP(1-28)]",0.31 nM,,
"CC[C@H](C)[C@@H]1NC(=O)[C@H](CCCNC(=N)N)NC(=O)[C@H](CC(=O)O)NC(=O)[C@H](CCSC)NC(=O)[C@H](CCCNC(=N)N)NC(=O)CNC(=O)CNC(=O)[C@H](Cc2ccccc2)NC(=O)[C@@H](NC(=O)[C@H](CO)NC(=O)[C@H](CO)NC(=O)[C@H](CCCNC(=N)N)NC(=O)[C@H](CCCNC(=N)N)NC(=O)[C@H](CC(C)C)NC(=O)[C@H](CO)NC(=O)CCOCCOCCOCCOCCNC(=O)CO[C@@H]2O[C@H](CO)[C@@H](O[C@@H]3O[C@H](CO)[C@@H](O[C@@H]4O[C@H](CO[C@H]5O[C@H](CO)[C@@H](O)[C@H](O)[C@@H]5O[C@@H]5O[C@H](CO)[C@@H](O[C@@H]6O[C@H](CO[C@]7(C(=O)O)C[C@H](O)[C@@H](NC(C)=O)[C@H]([C@H](O)[C@H](O)CO)O7)[C@H](O)[C@H](O)[C@H]6O)[C@H](O)[C@H]5NC(C)=O)[C@@H](O)[C@H](O[C@H]5O[C@H](CO)[C@@H](O)[C@H](O)[C@@H]5O[C@@H]5O[C@H](CO)[C@@H](O[C@@H]6O[C@H](CO[C@]7(C(=O)O)C[C@H](O)[C@@H](NC(C)=O)[C@H]([C@H](O)[C@H](O)CO)O7)[C@H](O)[C@H](O)[C@H]6O)[C@H](O)[C@H]5NC(C)=O)[C@@H]4O)[C@H](O)[C@H]3NC(C)=O)[C@H](O)[C@H]2NC(C)=O)CSSC[C@@H](C(=O)N[C@@H](CC(N)=O)C(=O)N[C@@H](CO)C(=O)N[C@@H](Cc2ccccc2)C(=O)N[C@@H](CCCNC(=N)N)C(=O)N[C@@H](Cc2ccc(O)cc2)C(=O)NCCOCCOCCOCCOCCC(=O)NCCO[C@@H]2O[C@H](CO)[C@@H](O[C@@H]3O[C@H](CO)[C@@H](O[C@@H]4O[C@H](CO[C@H]5O[C@H](CO)[C@@H](O)[C@H](O)[C@@H]5O[C@@H]5O[C@H](CO)[C@@H](O[C@@H]6O[C@H](CO[C@]7(C(=O)O)C[C@H](O)[C@@H](NC(C)=O)[C@H]([C@H](O)[C@H](O)CO)O7)[C@H](O)[C@H](O)[C@H]6O)[C@H](O)[C@H]5NC(C)=O)[C@@H](O)[C@H](O[C@H]5O[C@H](CO)[C@@H](O)[C@H](O)[C@@H]5O[C@@H]5O[C@H](CO)[C@@H](O[C@@H]6O[C@H](CO[C@]7(C(=O)O)C[C@H](O)[C@@H](NC(C)=O)[C@H]([C@H](O)[C@H](O)CO)O7)[C@H](O)[C@H](O)[C@H]6O)[C@H](O)[C@H]5NC(C)=O)[C@@H]4O)[C@H](O)[C@H]3NC(C)=O)[C@H](O)[C@H]2NC(C)=O)NC(=O)CNC(=O)[C@H](CC(C)C)NC(=O)CNC(=O)[C@H](CO)NC(=O)[C@H](CCC(N)=O)NC(=O)[C@H](C)NC(=O)CNC1=O [Compound 2-24, SG-PEG(3)-hANP(1-28)-PEG(3)-SG]",0.54 nM,,
[(SG-)Cys-Gly]5-hANP(1-28) [Compound 2-17],,35 nM,0.70
